# Biological target: T1, FaGT2* (Fragaria x ananassa, UniProt Q66PF4)
# T1 construct: gene GT2; full-length ORF, N-terminal GST tag kept (pGEX-4T-1), E. coli BL21(DE3) pLysS; natural allele of FaGT2 with eight amino acid differences, of which R230, E420, I422 (FaGT2: S230, D420, V422) are given
# Assay: radiochemical UDP-[…]glucose transfer assay, butanol extraction, LSC; Hanes-Woolf and non-linear fit
# Assay type: biochemical
# Conditions: 100 mM Tris-HCl pH 7.0, 30 °C, 30 min, fixed UDP-glucose (10 010 pmol); GST fusion
# T1 sequence (Q66PF4 whole entry): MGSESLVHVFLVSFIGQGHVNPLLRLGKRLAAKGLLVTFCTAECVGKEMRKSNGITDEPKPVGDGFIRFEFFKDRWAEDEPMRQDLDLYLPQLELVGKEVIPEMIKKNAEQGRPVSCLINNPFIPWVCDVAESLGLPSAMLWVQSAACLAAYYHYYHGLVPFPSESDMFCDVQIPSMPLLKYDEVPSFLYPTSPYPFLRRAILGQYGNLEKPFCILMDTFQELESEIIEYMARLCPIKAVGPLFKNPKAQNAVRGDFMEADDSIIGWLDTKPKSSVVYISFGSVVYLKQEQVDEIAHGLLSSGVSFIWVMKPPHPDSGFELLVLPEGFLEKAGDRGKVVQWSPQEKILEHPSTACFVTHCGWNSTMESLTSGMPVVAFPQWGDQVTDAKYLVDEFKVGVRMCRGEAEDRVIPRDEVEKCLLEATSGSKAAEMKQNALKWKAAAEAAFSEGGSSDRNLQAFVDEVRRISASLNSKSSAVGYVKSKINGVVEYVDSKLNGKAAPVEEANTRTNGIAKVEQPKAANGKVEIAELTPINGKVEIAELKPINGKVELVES
row,Km [µM],Compound
1,315 ± 8.4,O=C(O)c1ccc(O)cc1 [4-Hydroxybenzoic acid]
2,35 ± 3,COc1cc(/C=C/C(=O)O)cc(OC)c1O [Sinapic acid]
3,262 ± 7,COc1cc(C(=O)O)cc(OC)c1O [Syringic acid]
4,364 ± 12.8,COc1cc(C(=O)O)ccc1O [Vanillic acid]
